Converted amounts (≈) assume the structure as drawn. The source made the active and inactive calls. No cut-off for these calls is given here.
Key:
Diaphorina citri [1] = test: Insecticidal activity against fourth-instar nymphs of Diaphorina citri nymph in flush of citrus plants assessed as mortality measured on fifth-instar stage after 48 hr; type: functional
Diaphorina citri [2] = test: Ovicidal activity against Diaphorina citri in 2 to 3 months old citrus plant assessed as inhibition of old egg hatch at 64 ug/mL by residual contact bioassay; type: functional
Diaphorina citri [3] = test: Induction of morphological abnormalities of fourth and fifth-instar nymphs of Diaphorina citri in flush of citrus plants at 32 to 64 ug/ml after 48 hr; type: functional, organism-based
Diaphorina citri [4] = test: Ovicidal activity against Diaphorina citri in 2 to 3 months old citrus plant assessed as inhibition of old egg hatch at 4 to 8 ug/mL by leaf dip bioassay; type: functional, organism-based
Diaphorina citri [5] = test: Inhibition of reproduction in fifth-instar nymphs of Diaphorina citri in flush of citrus plants assessed as fecundity of egg at 100 ug/ml measured 4 to 6 days after emergence; type: functional, organism-based
Diaphorina citri [6] = test: Ovicidal activity against Diaphorina citri in 2 to 3 months old citrus plant assessed as inhibition of egg hatch measured 0 to 48 hr prior egg laying by residual contact bioassay; type: functional
Diaphorina citri [7] = test: Inhibition of reproduction in fifth-instar nymphs of Diaphorina citri in flush of citrus plants assessed as viability of egg at 64 ug/ml measured 7 to 9 days after emergence relative to control; type: functional
Diaphorina citri [8] = test: Insecticidal activity against third- instar nymphs of Diaphorina citri nymph in flush of citrus plants assessed as mortality measured on fourth-instar stage after 48 hr; type: functional
Diaphorina citri [9] = test: Inhibition of reproduction in fifth-instar nymphs of Diaphorina citri in flush of citrus plants assessed as fecundity of egg at 32 to 64 ug/ml measured 7 to 12 days after emergence relative to control; type: functional, organism-based
Diaphorina citri [10] = test: Inhibition of reproduction in fifth-instar nymphs of Diaphorina citri in flush of citrus plants assessed as viability of egg at 64 ug/ml measured 4 to 6 days after emergence relative to control; type: functional
Diaphorina citri [11] = test: Inhibition of reproduction in fifth-instar nymphs of Diaphorina citri in flush of citrus plants assessed as fecundity of egg at 32 to 64 ug/ml measured 0 to 3 days after emergence relative to control; type: functional; set-up: scale not given: the % may be the effect or the level left
Diaphorina citri [12] = test: Insecticidal activity against Diaphorina citri assessed as mortality at 100 ug/ml applied topically; type: functional, organism-based
Diaphorina citri [13] = test: Inhibition of reproduction in fifth-instar nymphs of Diaphorina citri in flush of citrus plants assessed as viability of egg at 100 ug/ml measured 4 to 6 days after emergence; type: functional, organism-based
Diaphorina citri [14] = test: Inhibition of reproduction in fifth-instar nymphs of Diaphorina citri in flush of citrus plants assessed as viability of egg at 32 to 64 ug/ml measured 0 to 3 days after emergence relative to control; type: functional
Diaphorina citri [15] = test: Insecticidal activity against second-instar nymphs of Diaphorina citri nymph in flush of citrus plants assessed as mortality measured on third-instar stage after 48 hr; type: functional
Diaphorina citri [16] = test: Insecticidal activity against first-instar nymphs of Diaphorina citri nymph in flush of citrus plants assessed as mortality measured on second-instar stage after 48 hr; type: functional
Diaphorina citri [17] = test: Ovicidal activity against Diaphorina citri in 2 to 3 months old citrus plant assessed as inhibition of old egg hatch at 128 ug/mL by leaf dip bioassay; type: functional; conditions: foliar
Diaphorina citri [18] = test: Inhibition of reproduction in fifth-instar nymphs of Diaphorina citri in flush of citrus plants assessed as viability of egg at 100 ug/ml applied topically; type: functional, organism-based
Diaphorina citri [19] = test: Inhibition of reproduction in fifth-instar nymphs of Diaphorina citri in flush of citrus plants assessed as viability of egg at 64 ug/ml measured 10 to 12 days after emergence relative to control; type: functional, organism-based
Diaphorina citri [20] = test: Inhibition of reproduction in fifth-instar nymphs of Diaphorina citri in flush of citrus plants assessed as fecundity of egg at 100 ug/ml measured 0 to 3 days after emergence; type: functional, organism-based
Diaphorina citri [21] = test: Inhibition of reproduction in fifth-instar nymphs of Diaphorina citri in flush of citrus plants assessed as fecundity of egg at 100 ug/ml measured 7 to 12 days after emergence; type: functional, organism-based
Diaphorina citri [22] = test: Inhibition of reproduction in fifth-instar nymphs of Diaphorina citri in flush of citrus plants assessed as viability of egg at 100 ug/ml measured 0 to 3 days after emergence; type: functional, organism-based
Diaphorina citri [23] = test: Inhibition of reproduction in fifth-instar nymphs of Diaphorina citri in flush of citrus plants assessed as fecundity of egg at 100 ug/ml applied topically; type: functional, organism-based
Diaphorina citri [24] = test: Ovicidal activity against Diaphorina citri in 2 to 3 months old citrus plant assessed as inhibition of egg hatch measured 0 to 48 hr after egg laying by leaf dip bioassay; type: functional
Diaphorina citri [25] = test: Inhibition of reproduction in fifth-instar nymphs of Diaphorina citri in flush of citrus plants assessed as viability of egg at 100 ug/ml measured 7 to 12 days after emergence; type: functional, organism-based
Diaphorina citri [26] = test: Inhibition of reproduction in fifth-instar nymphs of Diaphorina citri in flush of citrus plants assessed as fecundity of egg at 32 to 64 ug/ml measured 4 to 6 days after emergence relative to control; type: functional; set-up: scale not given: the % may be the effect or the level left
Diaphorina citri [27] = test: Ovicidal activity against Diaphorina citri in 2 to 3 months old citrus plant assessed as inhibition of egg hatch measured 49 to 96 hr after egg laying by leaf dip bioassay; type: functional
Diaphorina citri [28] = test: Insecticidal activity against fifth-instar nymphs of Diaphorina citri nymph in flush of citrus plants assessed as mortality measured on fifth-instar stage after 48 hr; type: functional

For `CC(COc1ccc(Oc2ccccc2)cc1)Oc1ccccn1` (stereo unspecified) [PYRIPROXYFEN], the LC50 (Diaphorina citri [1]) was 44.3 µg/mL (≈ 138 µM), the inhibition at 64 µg/mL (Diaphorina citri [2]) was 70% and the Activity (Diaphorina citri [3]) was “Active”. For the same molecule, the inhibition (Diaphorina citri [4]) was “Active”, the Activity (Diaphorina citri [5]) was “Active” and the LC50 (Diaphorina citri [6]) was 32.4 µg/mL (≈ 101 µM). The inhibition (Diaphorina citri [6]) was “Dose-dependent effect”, the Activity (Diaphorina citri [7]) was 83% and the LC50 (Diaphorina citri [8]) was 25.2 µg/mL (≈ 78.6 µM). For the same molecule, the Activity (Diaphorina citri [9]) was “inactive”, the Activity (Diaphorina citri [10]) was 59% and the Activity (Diaphorina citri [11]) was 58%. The Activity (Diaphorina citri [12]) was “inactive”, the Activity (Diaphorina citri [13]) was “Active” and the Activity (Diaphorina citri [14]) was 69%. The LC50 (Diaphorina citri [15]) was 21.6 µg/mL (≈ 67.1 µM), the LC50 (Diaphorina citri [16]) was 17.6 µg/mL (≈ 54.8 µM) and the inhibition at 128 µg/mL (Diaphorina citri [17]) was greater than 90%. The Activity (Diaphorina citri [18]) was “Active”, the Activity (Diaphorina citri [19]) was “inactive” and the Activity (Diaphorina citri [20]) was “inactive”. For the same molecule, the Activity (Diaphorina citri [21]) was “inactive”, the Activity (Diaphorina citri [22]) was “Active” and the Activity (Diaphorina citri [23]) was “Active”. For the same molecule, the inhibition (Diaphorina citri [24]) was “Dose-dependent effect”, the LC50 (Diaphorina citri [24]; foliar) was 18.4 µg/mL (≈ 57.4 µM) and the Activity (Diaphorina citri [25]) was “inactive”. For the same molecule, the Activity (Diaphorina citri [26]) was 64%, the inhibition (Diaphorina citri [27]) was “Dose-dependent effect” and the LC50 (Diaphorina citri [27]; foliar) was 37 µg/mL (≈ 115 µM). The LC50 (Diaphorina citri [28]) was 51.3 µg/mL (≈ 160 µM).

Reference: ChEMBL document CHEMBL3045744, “Effect of pyriproxyfen, a juvenile hormone mimic, on egg hatch, nymph development, adult emergence and reproduction of the Asian citrus psyllid, Diaphorina citri Kuwayama” (2010)
